Key:
[1] = molecular target: Rhodopsin kinase GRK1 (Homo sapiens) (UniProt Q15835); conditions: Compound concentration 1000.0 nM
[2] = molecular target: SRSF protein kinase 1 (Homo sapiens) (UniProt Q96SB4); conditions: Compound concentration 1000.0 nM
[3] = molecular target: Bone morphogenetic protein receptor type-2 (Homo sapiens) (UniProt Q13873); conditions: Compound concentration 1000.0 nM
[4] = molecular target: Rhodopsin kinase GRK7 (Homo sapiens) (UniProt Q8WTQ7); conditions: Compound concentration 1000.0 nM
[5] = molecular target: Myosin light chain kinase (Homo sapiens) (UniProt Q32MK0); conditions: Compound concentration 1000.0 nM
[6] = molecular target: Serine/threonine-protein kinase ULK2 (Homo sapiens) (UniProt Q8IYT8); conditions: Compound concentration 1000.0 nM
[7] = molecular target: Atypical kinase COQ8B, mitochondrial (Homo sapiens) (UniProt Q96D53); conditions: Compound concentration 1000.0 nM
[8] = molecular target: Ephrin type-A receptor 1 (Homo sapiens) (UniProt P21709); conditions: Compound concentration 1000.0 nM
[9] = molecular target: Casein kinase I isoform delta (Homo sapiens) (UniProt P48730); conditions: Compound concentration 1000.0 nM
[10] = tested on: Epidermal growth factor receptor (Homo sapiens), P00533 [UNDEFINED MUTATION]; conditions: Compound concentration 1000.0 nM
[11] = tested on: Leucine-rich repeat serine/threonine-protein kinase 2 (Homo sapiens), Q5S007 [G2019S]; conditions: Compound concentration 1000.0 nM
Chain of Leucine-rich repeat serine/threonine-protein kinase 2 (Homo sapiens), Q5S007 [G2019S] (Q5S007 whole entry G2019S): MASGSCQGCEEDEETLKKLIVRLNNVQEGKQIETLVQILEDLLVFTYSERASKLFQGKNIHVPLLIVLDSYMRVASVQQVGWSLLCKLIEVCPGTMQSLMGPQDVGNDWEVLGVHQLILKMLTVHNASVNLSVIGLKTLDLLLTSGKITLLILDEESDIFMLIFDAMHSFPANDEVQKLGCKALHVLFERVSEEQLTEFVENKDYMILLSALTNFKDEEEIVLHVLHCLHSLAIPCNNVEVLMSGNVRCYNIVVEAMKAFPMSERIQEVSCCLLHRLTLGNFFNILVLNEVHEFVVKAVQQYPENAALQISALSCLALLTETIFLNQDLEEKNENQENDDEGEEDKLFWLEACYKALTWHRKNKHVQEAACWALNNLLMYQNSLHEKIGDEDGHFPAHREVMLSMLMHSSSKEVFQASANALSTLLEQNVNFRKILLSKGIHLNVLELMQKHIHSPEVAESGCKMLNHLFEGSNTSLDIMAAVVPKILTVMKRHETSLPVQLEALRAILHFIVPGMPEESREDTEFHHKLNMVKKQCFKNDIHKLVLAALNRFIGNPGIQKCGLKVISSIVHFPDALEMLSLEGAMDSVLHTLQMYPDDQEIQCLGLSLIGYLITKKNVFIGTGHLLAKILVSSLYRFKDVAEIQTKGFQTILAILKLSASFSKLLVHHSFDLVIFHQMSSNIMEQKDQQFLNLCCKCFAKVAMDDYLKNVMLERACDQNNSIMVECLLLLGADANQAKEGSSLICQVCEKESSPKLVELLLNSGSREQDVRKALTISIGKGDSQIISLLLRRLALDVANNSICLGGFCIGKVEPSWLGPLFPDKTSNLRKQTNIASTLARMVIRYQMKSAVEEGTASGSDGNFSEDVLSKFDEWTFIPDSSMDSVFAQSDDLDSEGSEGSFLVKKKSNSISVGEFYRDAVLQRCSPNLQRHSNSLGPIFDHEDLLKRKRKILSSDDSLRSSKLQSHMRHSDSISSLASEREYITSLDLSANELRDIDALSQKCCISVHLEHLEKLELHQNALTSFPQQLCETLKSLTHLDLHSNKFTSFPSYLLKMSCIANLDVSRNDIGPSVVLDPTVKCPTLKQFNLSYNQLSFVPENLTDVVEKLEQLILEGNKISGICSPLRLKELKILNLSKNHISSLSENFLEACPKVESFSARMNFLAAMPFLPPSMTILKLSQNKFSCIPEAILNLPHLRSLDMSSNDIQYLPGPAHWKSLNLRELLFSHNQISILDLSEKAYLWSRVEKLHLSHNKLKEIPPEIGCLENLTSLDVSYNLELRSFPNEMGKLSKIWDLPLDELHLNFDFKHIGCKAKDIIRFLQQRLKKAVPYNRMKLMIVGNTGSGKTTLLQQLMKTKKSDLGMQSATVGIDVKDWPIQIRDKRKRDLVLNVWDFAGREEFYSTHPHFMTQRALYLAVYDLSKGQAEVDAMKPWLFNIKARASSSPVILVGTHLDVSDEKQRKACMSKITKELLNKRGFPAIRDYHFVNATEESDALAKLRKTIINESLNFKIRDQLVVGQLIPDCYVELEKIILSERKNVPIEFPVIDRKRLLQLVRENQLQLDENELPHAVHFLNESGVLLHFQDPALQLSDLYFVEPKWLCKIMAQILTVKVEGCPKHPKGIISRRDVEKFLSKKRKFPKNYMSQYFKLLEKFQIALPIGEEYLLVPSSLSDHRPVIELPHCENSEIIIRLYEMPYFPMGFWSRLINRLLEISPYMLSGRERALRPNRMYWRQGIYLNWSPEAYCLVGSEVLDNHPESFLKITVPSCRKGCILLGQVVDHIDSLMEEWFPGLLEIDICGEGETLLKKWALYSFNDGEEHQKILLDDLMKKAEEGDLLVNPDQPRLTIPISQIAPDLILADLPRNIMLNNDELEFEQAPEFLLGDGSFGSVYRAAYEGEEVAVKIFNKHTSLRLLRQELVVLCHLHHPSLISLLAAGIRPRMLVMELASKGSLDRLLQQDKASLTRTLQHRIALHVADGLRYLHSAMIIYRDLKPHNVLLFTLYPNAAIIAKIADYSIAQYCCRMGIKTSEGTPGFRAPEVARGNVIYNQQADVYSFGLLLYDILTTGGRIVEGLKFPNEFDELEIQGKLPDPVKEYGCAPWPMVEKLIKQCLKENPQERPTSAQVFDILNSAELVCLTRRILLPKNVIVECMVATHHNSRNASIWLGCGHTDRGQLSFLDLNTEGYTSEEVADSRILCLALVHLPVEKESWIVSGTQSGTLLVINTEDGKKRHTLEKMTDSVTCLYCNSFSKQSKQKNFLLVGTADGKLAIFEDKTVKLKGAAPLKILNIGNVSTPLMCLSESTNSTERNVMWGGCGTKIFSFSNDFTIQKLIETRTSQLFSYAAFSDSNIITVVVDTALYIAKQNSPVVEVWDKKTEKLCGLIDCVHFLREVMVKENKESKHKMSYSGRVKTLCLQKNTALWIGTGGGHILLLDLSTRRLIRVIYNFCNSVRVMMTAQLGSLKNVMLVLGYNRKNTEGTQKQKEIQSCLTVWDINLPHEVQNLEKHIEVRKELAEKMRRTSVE

[12] = molecular target: Serine/threonine-protein kinase 38 (Homo sapiens) (UniProt Q15208); conditions: Compound concentration 1000.0 nM
[13] = molecular target: Phosphatidylinositol 5-phosphate 4-kinase type-2 beta (Homo sapiens) (UniProt P78356); conditions: Compound concentration 1000.0 nM
[14] = molecular target: Cyclin-G-associated kinase (Homo sapiens) (UniProt O14976); conditions: Compound concentration 1000.0 nM
[15] = tested on: Receptor-type tyrosine-protein kinase FLT3 (Homo sapiens), P36888 [D835V]; conditions: Compound concentration 1000.0 nM
[16] = molecular target: Casein kinase I isoform gamma-1 (Homo sapiens) (UniProt Q9HCP0); conditions: Compound concentration 1000.0 nM
[17] = tested on: Phosphatidylinositol 4,5-bisphosphate 3-kinase catalytic subunit alpha isoform (Homo sapiens), P42336 [Q546K]; conditions: Compound concentration 1000.0 nM
[18] = molecular target: Cyclin-dependent kinase-like 1 (Homo sapiens) (UniProt Q00532); conditions: Compound concentration 1000.0 nM
[19] = molecular target: Dual specificity mitogen-activated protein kinase kinase 2 (Homo sapiens) (UniProt P36507); conditions: Compound concentration 1000.0 nM
[20] = molecular target: Inhibitor of nuclear factor kappa-B kinase subunit alpha (Homo sapiens) (UniProt O15111); conditions: Compound concentration 1000.0 nM
Chain of Inhibitor of nuclear factor kappa-B kinase subunit alpha (Homo sapiens) (O15111 whole entry): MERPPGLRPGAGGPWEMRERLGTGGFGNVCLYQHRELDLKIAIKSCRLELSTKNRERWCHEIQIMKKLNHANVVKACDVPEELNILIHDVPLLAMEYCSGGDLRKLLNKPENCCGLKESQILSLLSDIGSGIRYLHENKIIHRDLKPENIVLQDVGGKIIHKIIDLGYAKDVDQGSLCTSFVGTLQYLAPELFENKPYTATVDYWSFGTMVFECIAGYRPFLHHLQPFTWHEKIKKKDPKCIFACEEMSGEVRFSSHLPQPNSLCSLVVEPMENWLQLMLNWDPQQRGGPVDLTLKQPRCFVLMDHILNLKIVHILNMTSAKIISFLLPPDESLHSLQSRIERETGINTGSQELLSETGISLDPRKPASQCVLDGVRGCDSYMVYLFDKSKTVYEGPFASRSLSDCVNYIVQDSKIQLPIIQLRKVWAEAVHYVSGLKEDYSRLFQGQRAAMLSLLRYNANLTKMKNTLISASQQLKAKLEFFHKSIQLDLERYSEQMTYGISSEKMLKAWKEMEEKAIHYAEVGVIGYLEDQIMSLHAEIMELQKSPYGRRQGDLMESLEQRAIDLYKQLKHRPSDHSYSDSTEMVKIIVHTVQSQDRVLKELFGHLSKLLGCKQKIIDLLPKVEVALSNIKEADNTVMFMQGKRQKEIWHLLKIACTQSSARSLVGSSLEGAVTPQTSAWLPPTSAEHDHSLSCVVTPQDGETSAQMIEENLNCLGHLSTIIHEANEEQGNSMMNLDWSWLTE

[21] = molecular target: Sigma intracellular receptor 2 (Homo sapiens, UniProt Q5BJF2); conditions: Compound concentration 10.0 uM
Chain of Sigma intracellular receptor 2 (Q5BJF2 whole entry, canonical isoform): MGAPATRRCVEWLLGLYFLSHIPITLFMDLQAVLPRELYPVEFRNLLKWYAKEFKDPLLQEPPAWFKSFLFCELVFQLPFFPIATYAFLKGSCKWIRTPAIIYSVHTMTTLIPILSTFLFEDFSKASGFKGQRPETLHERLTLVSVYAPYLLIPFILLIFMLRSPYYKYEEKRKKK

[22] = molecular target: Phosphatidylinositol 4,5-bisphosphate 3-kinase catalytic subunit delta isoform (Homo sapiens) (UniProt O00329); conditions: Compound concentration 1000.0 nM
[23] = molecular target: Serine/threonine-protein kinase VRK2 (Homo sapiens) (UniProt Q86Y07); conditions: Compound concentration 1000.0 nM
[24] = molecular target: Protein kinase C delta type (Homo sapiens) (UniProt Q05655); conditions: Compound concentration 1000.0 nM
[25] = tested on: Tyrosine-protein kinase ABL1 (Homo sapiens), P00519 [F317I]; conditions: Compound concentration 1000.0 nM
[26] = molecular target: Serine/threonine-protein kinase DCLK3 (Homo sapiens) (UniProt Q9C098); conditions: Compound concentration 1000.0 nM
[27] = molecular target: Homeodomain-interacting protein kinase 3 (Homo sapiens) (UniProt Q9H422); conditions: Compound concentration 1000.0 nM
[28] = molecular target: Cyclin-dependent kinase 13 (Homo sapiens) (UniProt Q14004); conditions: Compound concentration 1000.0 nM
Chain of Cyclin-dependent kinase 13 (Homo sapiens) (Q14004 whole entry, looked up): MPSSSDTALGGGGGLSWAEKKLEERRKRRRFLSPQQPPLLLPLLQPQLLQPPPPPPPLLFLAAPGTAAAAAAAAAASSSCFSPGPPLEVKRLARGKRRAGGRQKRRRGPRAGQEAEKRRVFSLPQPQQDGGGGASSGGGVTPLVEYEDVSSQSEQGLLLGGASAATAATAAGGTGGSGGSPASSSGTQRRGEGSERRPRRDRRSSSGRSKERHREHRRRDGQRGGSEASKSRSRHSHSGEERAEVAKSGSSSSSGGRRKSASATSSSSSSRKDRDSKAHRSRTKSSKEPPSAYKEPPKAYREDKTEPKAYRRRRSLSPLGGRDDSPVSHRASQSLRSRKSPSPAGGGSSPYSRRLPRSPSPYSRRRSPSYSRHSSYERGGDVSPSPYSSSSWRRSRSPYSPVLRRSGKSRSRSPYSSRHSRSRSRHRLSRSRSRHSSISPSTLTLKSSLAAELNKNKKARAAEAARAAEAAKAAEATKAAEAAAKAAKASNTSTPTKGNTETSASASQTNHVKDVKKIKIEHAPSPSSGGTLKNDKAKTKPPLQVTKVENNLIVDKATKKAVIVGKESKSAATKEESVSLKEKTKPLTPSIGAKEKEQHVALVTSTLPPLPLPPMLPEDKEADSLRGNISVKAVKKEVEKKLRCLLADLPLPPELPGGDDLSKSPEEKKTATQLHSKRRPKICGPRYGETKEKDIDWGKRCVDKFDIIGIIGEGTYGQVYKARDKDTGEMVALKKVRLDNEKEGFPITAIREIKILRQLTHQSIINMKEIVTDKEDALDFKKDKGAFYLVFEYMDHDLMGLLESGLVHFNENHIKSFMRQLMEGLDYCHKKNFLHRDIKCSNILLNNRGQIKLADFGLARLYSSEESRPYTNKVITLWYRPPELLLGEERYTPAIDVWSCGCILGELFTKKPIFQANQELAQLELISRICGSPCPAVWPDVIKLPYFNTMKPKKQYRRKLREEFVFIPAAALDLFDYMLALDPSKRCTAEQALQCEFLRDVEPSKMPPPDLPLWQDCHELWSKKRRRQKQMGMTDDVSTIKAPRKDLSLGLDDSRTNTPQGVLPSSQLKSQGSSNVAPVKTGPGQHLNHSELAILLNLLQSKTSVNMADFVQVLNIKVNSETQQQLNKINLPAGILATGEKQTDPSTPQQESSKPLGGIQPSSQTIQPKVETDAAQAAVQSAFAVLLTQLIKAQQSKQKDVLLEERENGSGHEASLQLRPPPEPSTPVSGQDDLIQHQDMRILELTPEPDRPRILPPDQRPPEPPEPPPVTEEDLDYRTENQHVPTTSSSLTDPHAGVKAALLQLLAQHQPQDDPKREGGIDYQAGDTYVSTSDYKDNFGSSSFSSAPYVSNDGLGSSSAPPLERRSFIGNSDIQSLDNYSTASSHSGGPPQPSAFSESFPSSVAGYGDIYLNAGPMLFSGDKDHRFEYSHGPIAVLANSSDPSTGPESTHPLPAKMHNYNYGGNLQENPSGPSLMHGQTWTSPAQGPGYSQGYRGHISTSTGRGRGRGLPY

[29] = molecular target: Ephrin type-B receptor 1 (Homo sapiens) (UniProt P54762); conditions: Compound concentration 1000.0 nM
[30] = molecular target: Ribosomal protein S6 kinase alpha-1 (Homo sapiens) (UniProt Q15418); conditions: Compound concentration 1000.0 nM
[31] = molecular target: Serine/threonine-protein kinase TAO3 (Homo sapiens) (UniProt Q9H2K8); conditions: Compound concentration 1000.0 nM
[32] = molecular target: Dual specificity protein kinase TTK (Homo sapiens) (UniProt P33981); conditions: Compound concentration 1000.0 nM
[33] = molecular target: Serine/threonine-protein kinase MARK2 (Homo sapiens) (UniProt Q7KZI7); conditions: Compound concentration 1000.0 nM
[34] = molecular target: Macrophage colony-stimulating factor 1 receptor (Homo sapiens) (UniProt P07333); conditions: Compound concentration 1000.0 nM
[35] = molecular target: Cyclin-dependent kinase 2 homolog (Plasmodium falciparum (isolate 3D7)) (UniProt P61075); conditions: Compound concentration 1000.0 nM
[36] = molecular target: Phosphatidylinositol 4,5-bisphosphate 3-kinase catalytic subunit alpha isoform (Homo sapiens) (UniProt P42336); conditions: Compound concentration 1000.0 nM
[37] = tested on: Tyrosine-protein kinase ABL1 (Homo sapiens), P00519 [F317L]; conditions: Compound concentration 1000.0 nM
[38] = molecular target: Mitogen-activated protein kinase 7 (Homo sapiens) (UniProt Q13164); conditions: Compound concentration 1000.0 nM
[39] = molecular target: Muscle, skeletal receptor tyrosine-protein kinase (Homo sapiens) (UniProt O15146); conditions: Compound concentration 1000.0 nM
[40] = molecular target: MAP kinase-interacting serine/threonine-protein kinase 1 (Homo sapiens) (UniProt Q9BUB5); conditions: Compound concentration 1000.0 nM
[41] = molecular target: Eukaryotic translation initiation factor 2-alpha kinase 1 (Homo sapiens) (UniProt Q9BQI3); conditions: Compound concentration 1000.0 nM
[42] = molecular target: Mitogen-activated protein kinase 13 (Homo sapiens) (UniProt O15264); conditions: Compound concentration 1000.0 nM
[43] = molecular target: RAC-alpha serine/threonine-protein kinase (Homo sapiens) (UniProt P31749); conditions: Compound concentration 1000.0 nM
[44] = tested on: Epidermal growth factor receptor (Homo sapiens), P00533 [G719C]; conditions: Compound concentration 1000.0 nM
[45] = molecular target: Cyclin-dependent kinase-like 2 (Homo sapiens) (UniProt Q92772); conditions: Compound concentration 1000.0 nM

C[C@H](NC(=O)c1cnc2n1[C@](C)(Cc1ccc(C#N)cc1)C(=O)N2c1cc(Cl)c(F)c(Cl)c1)C(=O)NC1(c2ccccn2)CC1 [BI 1950]
residual activity [1]: 100%
residual activity [2]: 81%
residual activity [3]: 100%
residual activity [4]: 100%
residual activity [5]: 100%
residual activity [6]: 100%
residual activity [7]: 100%
residual activity [8]: 100%
residual activity [9]: 100%
residual activity [10]: 82%
residual activity [11]: 100%
residual activity [12]: 96%
residual activity [13]: 100%
residual activity [14]: 92%
residual activity [15]: 100%
residual activity [16]: 99%
residual activity [17]: 97%
residual activity [18]: 73%
residual activity [19]: 90%
residual activity [20]: 100%
inhibition [21]: 25.9%
residual activity [22]: 95%
residual activity [23]: 100%
residual activity [24]: 100%
residual activity [25]: 78%
residual activity [26]: 100%
residual activity [27]: 100%
residual activity [28]: 100%
residual activity [29]: 85%
residual activity [30]: 100%
residual activity [31]: 88%
residual activity [32]: 100%
residual activity [33]: 100%
residual activity [34]: 100%
residual activity [35]: 100%
residual activity [36]: 100%
residual activity [37]: 98%
residual activity [38]: 100%
residual activity [39]: 100%
residual activity [40]: 93%
residual activity [41]: 93%
residual activity [42]: 100%
residual activity [43]: 100%
residual activity [44]: 100%
residual activity [45]: 100%

C[C@@]1(Cc2ccc(C#N)cc2)C(=O)N(c2cc(Cl)cc(Cl)c2)c2ncc(C(=O)NC3(c4nc(C5CCC5)no4)CC3)n21 [BI 9446]
residual activity [1]: 100%
residual activity [2]: 94%
residual activity [3]: 100%
residual activity [4]: 100%
residual activity [5]: 87%
residual activity [6]: 100%
residual activity [7]: 100%
residual activity [8]: 100%
residual activity [9]: 100%
residual activity [10]: 58%
residual activity [11]: 100%
residual activity [12]: 100%
residual activity [13]: 97%
residual activity [14]: 100%
residual activity [15]: 100%
residual activity [16]: 92%
residual activity [17]: 88%
residual activity [18]: 100%
residual activity [19]: 99%
residual activity [20]: 100%
inhibition [21]: 58%
residual activity [22]: 73%
residual activity [23]: 100%
residual activity [24]: 100%
residual activity [25]: 96%
residual activity [26]: 88%
residual activity [27]: 100%
residual activity [28]: 100%
residual activity [29]: 87%
residual activity [30]: 100%
residual activity [31]: 91%
residual activity [32]: 94%
residual activity [33]: 85%
residual activity [34]: 100%
residual activity [35]: 100%
residual activity [36]: 87%
residual activity [37]: 100%
residual activity [38]: 100%
residual activity [39]: 100%
residual activity [40]: 100%
residual activity [41]: 100%
residual activity [42]: 100%
residual activity [43]: 100%
residual activity [44]: 100%
residual activity [45]: 100%
